In ChEMBL document CHEMBL3639115, “Benzimidazole inhibitors of leukotriene production” (2014):

Biological target: T1, Arachidonate 5-lipoxygenase-activating protein (Homo sapiens, UniProt P20292)
T1 sequence (P20292 whole entry): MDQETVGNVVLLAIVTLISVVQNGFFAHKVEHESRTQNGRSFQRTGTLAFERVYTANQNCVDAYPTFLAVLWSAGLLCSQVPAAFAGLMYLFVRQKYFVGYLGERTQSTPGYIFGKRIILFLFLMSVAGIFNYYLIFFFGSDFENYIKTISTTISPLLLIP
Assay: Scintillation Proximity Assay: Compounds are assessed for the ability to bind to FLAP in a binding assay that measures compound-specific displacement of an iodinated (125I) FLAP inhibitor via a Scintillation Proximity Assay format (adapted from S. Charleson et al., Mol. Pharmacol., 1992, 41, 873-879).Cell pellets produced from sf9 insect cells expressing recombinant human FLAP protein are resuspended in buffer A [15 mM Tris-HCl (pH 7.5), 2 mM MgCl2, 0.3 mM EDTA, 1 mM PMSF]. The cells are lysed with a Dounce homogenizer and the material is centrifuged at 10,000xg for 10 minutes. The supernatant is then collected and centrifuged at 100,000xg for 60 minutes. To prepare membrane protein for an assay, an aliquot of the 100,000xg pellet is resuspended in 1 ml of buffer A, Dounce homogenized, and finally subjected to polytron mixing (30 seconds). Membrane protein (25 ul, 5 ug) is mixed with WGA SPA beads (Amersham) and stirred for 1 h. To an assay plate (Perkin Elmer FlexiPlate) is added 25 ul of test compound.

With CC(C)(C)n1c(-c2ccccc2C(N)=O)nc2cc(-c3cnc(N)nc3)ccc21 the IC50 was 35.4 nM.
